In patent publication US9084782B2, “Chemical inhibitors of cholesterol biosynthesis and venous angiogenesis” (The Regents of the University of California, priority 2011, dated 2015):
Entries after “also recorded” stand apart in the source; their conditions may differ.

Columns and labels:
[1] = tested on: Tg(kdrl:GFP) zebrafish embryos; assay: Primary ISV formation (arterial-derived angiogenesis) in zebrafish embryos; type: in vivo
Excerpt: Images of GFP expression in Tg(kdrl:GFP) embryos were acquired using a Zeiss SV-11 epifluorescence microscope. Confocal images were acquired using a Carl Zeiss Laser Scanning Systems LSM510 equipped with 20× air, 20× water or 40× water immersion objectives. For single time point confocal images, embryos were anesthetized with 0.01% tricaine and embedded in 1% agarose. When capturing time-lapse confocal movies, embryos were mounted in 3.5% methylcellulose (Sigma-Aldrich) and imaged for 5 hrs on a heated stage at 28.5° C. The images obtained were analyzed using the Zeiss LSM Image Brower version 4 and Image J.
A synthetic chemical library containing 168 compounds (Castellano et al., 2007) and 300 chemicals from Biomol International LP, consisting of 72 ion channel inhibitors (Cat No. 2805), 84 kinase/phosphatase inhibitors (Cat No. 2831), 84 orphan ligands (Cat No. 2825), and 60 endocannabinoids (Cat No. 2801) were screened. […]
To understand whether angiogenesis from arterial and venous ECs are under different genetic controls we screened a collection of small molecules for compounds that preferentially suppress angiogenesis from exclusively one cell type. In this screen, we used the primary ISV sprouts as the readout for arterial-derived angiogenesis, and the CVP and secondary ISV sprouts as indicators of venous-derived angiogenesis. […]

zebrafish embryos = assay: Overall phenotype of treated zebrafish embryos (body shape, circulation); type: in vivo
Description: (§1) A,B,C, Overall phenotype of control and aplexone-treated embryos at 30 hpf. A′,B′,C′, Vasculature in trunk. […] D-E, Germ cells in control and aplexone treated embryos at 24 hpf were detected by in situ hybridization using the nanos probe. F, The percentage of embryos with ectopic primordial germ cells in control (n=26), 5 μM (n=13), and 10 μM (n=14) aplexone-treated embryos. […] I, The percentage of embryos with cardia bifida in control (n=16) and 10 μM-(n=17), 20 μM-(n=17) and 30 μM-(n=18) aplexone-treated embryos.
Aplexone treatment described in this study was carried out at a concentration of 10 μM starting at 10 hpf unless otherwise specified.

HUAECs = assay: Wound healing assay, HUAECs; type: cell-based, human
Description: (§2) HUVECs and HUAECs were purchased from VEC Technologies. Cells were cultured on 0.1% Gelatin-coated dishes in Medium 199 (Mediatech), supplemented with 15% Fetal Bovine Serum (ATCC), 48 μg/mL Endothelial Cell Growth Supplement (BD Biosciences), 64 μg/mL Heparin Sulfate (Sigma-Aldrich), 0.9 mM Sodium Pyruvate (Mediatech), 100 IU/ml Penicillin (Mediatech), and 100 μg/ml Streptomycin (Mediatech).
(§3) For the wound healing assay, cells were cultured in 24-well plates to confluence before being subjected to a 2-hour pre-treatment with either DMSO, aplexone, Rockout (Calbiochem) or NSC 23766 (TOCRIS Bioscience). After the pre-treatment, the monolayer of endothelial cells was scratched and the closure of the wound was measured after 8 hr. The images of wounds were taken at 0 and 8 hr after scratching and the area of the wound was measured using Image J. The migration distance (the width of the wound) was calculated by dividing the area by the length of the wound. Cells below passage seven were used in this study.

HMGCR pathway = assay: Quantitative RT-PCR of aplexone-treated embryos; type: in vivo, zebrafish; conditions: qPCR, GAPDH-normalized
Description: Embryos at the 5-somite stage were treated with 0.4% DMSO (control) or 10 μM of aplexone in 0.4% DMSO and total RNA was isolated using the RNAeasy micro kit (Qiagen) at 30 hpf. Microarray analysis was performed in triplicate using the Affymetrix Zebrafish GeneChip, representing 15,617 genes. Synthesis and labeling of antisense RNA was performed as recommended by the array manufacturer using kits from Invitrogen for double-stranded cDNA synthesis, Enzo Life Sciences for transcription and labeling of antisense RNA and Affymetrix for probe purification and hybridization controls. Microarray hybridization data were analyzed using scripts written in the statistical programming language R (Team, 2009). Differentially expressed genes (DEGs) were identified using a linear model and multiple testing correction from the limma package (Smyth, 2004). The expression values were obtained using the robust multi array algorithm (Irizarry et al., 2003).
Quantitative RT-PCR was performed as follows. First strand cDNA was synthesized using the SuperScript™ first-strand synthesis system for RT-PCR (Invitrogen) and relative expression levels of genes were determined using iQ SYBR Green Supermix and an iCycler (Bio-Rad Laboratories). GAPDH was used for normalization.

HUVECs = assay: Wound healing assay, HUVECs; type: cell-based, human
Description: as §2, §3

mCherry-RhoCLVL = assay: Localization of chimeric protein mCherry-RhoCLVL (geranylgeranylation); type: in vivo, zebrafish; conditions: 10 μM aplexone, 80% epiboly
Description: mCherry-RhoCLVL was generated by PCR amplification of mCherry from pmCherry-N3 (a generous gift from S. Walsh) using primers containing sequences coding for the C-terminal 20 amino acid residues of human RhoA. mCherry-RasCVLS was amplified from pME-mCherryCAAX (a generous gift from C.-B. Chien). The PCR products were sub-cloned into pcGlobin2 (Ro et al., 2004) and mRNA was synthesized using the mMESSAGE mMACHINE kit (Ambion). Zebrafish embryos were injected with 250 pg of mCherry-RhoCLVL and mCherry-RasCVLS mRNA at 1-cell stage, and raised with or without the presence of 10 μM aplexone at 25° C. and fixed at 80% epiboly. Cellular localizations of the mCherry chimeras were analyzed with confocal microscopy.

primordial germ cells = assay: Primordial germ cell migration, in situ hybridization with nanos probe; type: in vivo, zebrafish; conditions: 10 μM aplexone
Description: as §1

body shape (zebrafish embryos; 10 μM aplexone): relatively normal body shape
embryo length (zebrafish embryos; 30 μM aplexone): shorter than control embryos
blood circulation (zebrafish embryos; aplexone-treated embryos): lack blood circulation
germ cell migration (primordial germ cells): defect in germ cell migration
SMILES: CC(=O)C1=CCC(c2ccccc2)N(S(=O)(=O)c2ccc(C)cc2)C1 (stereo not drawn) [aplexone]
development of primary ISVs ([1]; 10 μM aplexone): indistinguishable; also recorded: does not affect the development of primary ISVs
development of primary ISVs ([1]; 30 μM aplexone): shorter and never reach the dorsal side of the somites; also recorded: inhibits the growth of primary ISVs
HUAEC migration (HUAECs; 5 μM aplexone, 8 hr): unaffected
impediment in HUAEC migration (HUAECs; 10 μM aplexone, p<0.05): 10%
fold change 3-hydroxy-3-methylglutaryl-Coenzyme A reductase (HMGCR) (HMGCR pathway): 6.7 fold
fold change 3-hydroxy-3-methylglutaryl-Coenzyme A synthase 1 (HMGCS) (HMGCR pathway): 2.8 fold
fold change 7-dehydrocholesterol reductase (DHCR7) (HMGCR pathway): 2.5 fold
fold change cytochrome P450, family 51 (CYP51) (HMGCR pathway): 4.4 fold
fold change farnesyl diphosphate synthetase (FDPS) (HMGCR pathway): 2.2 fold
fold change insulin induced gene 1 (INSIG) (HMGCR pathway): 5.1 fold
fold change sterol-C4-methyl oxidase-like (SC4MOL) (HMGCR pathway): 5.6 fold
migration of HUVECs (HUVECs; 5 μM aplexone): sufficient to impede the migration of HUVECs
migration of HUVECs (HUVECs; various aplexone concentrations, 8 hr after wound): inhibited
subcellular localization of mCherry-rhoCAAX (CLVL) chimeric protein (mCherry-RhoCLVL): no longer localized predominantly to the membrane; also recorded: mis-localized to the nucleus and cytoplasm
